Experimental data published in patent US9884818B2, “Sulphamoylpyrrolamide derivatives and the use thereof as medicaments for the treatment of hepatitis B” (Janssen Sciences Ireland UC, priority 2013, dated 2018).

Assays:
[1] = test system: HBV; test: Anti-HBV activity, HepG2.2.15 stable transfected cell line, HBV DNA from secreted virions by realtime PCR; assay type: cell-based; conditions: Hepatitis B virus, HepG2.2.15, 144 h, HepG2.2.15 cells, 6 days of treatment, HBV DNA from secreted virions; read-out: HepG2 2.15 EC50
[2] = Cytotoxicity in HepG2 cells, Resazurin viability assay; conditions: human, HepG2 cells, HepG2 4 days CC50 (μM), incubated for 4 days, Resazurin assay
[3] = test system: HBV; test: Anti-HBV activity, HepG2.117 inducibly HBV producing cell line (Tet-off), intracellular HBV DNA by realtime PCR; assay type: cell-based; conditions: Hepatitis B virus, HepG2.117, 72 h, HepG2.117 cells, 3 days of treatment, intracellular HBV DNA; read-out: HepG2 117 EC50

## Cc1cc(NC(=O)c2cc(S(=O)(=O)NC3(C)COC3)cn2C)cc(C(F)(F)F)c1F [Compound 79, N-[4-Fluoro-3-methyl-5-(trifluoromethyl)phenyl]-1-methyl-4-[(3-methyloxetan-3-yl)sulfamoyl]-1H-pyrrole-2-carboxamide]
[1]
  EC50: 530 nM
[2]
  CC50 at 4 days: > 25 µM
[3]
  EC50: 460 nM

## CC(NS(=O)(=O)c1cc(C(=O)Nc2ccc(F)c(Cl)c2F)n(C)c1)C(F)F (stereo not drawn) [Compound 252, N-(3-chloro-2,4-difluoro-phenyl)-4-[(2,2-difluoro-1-methyl-ethyl)sulfamoyl]-1-methyl-1H-pyrrole-2-carboxamide]
[1]
  EC50: 50 nM
[2]
  CC50 at 4 days: > 25 µM
[3]
  EC50: 80 nM

## Cn1cc(S(=O)(=O)NC2(C)COC2)cc1C(=O)Nc1cc(F)c(F)c(Cl)c1 [Compound 59, N-(3-chloro-4,5-difluoro-phenyl)-1-methyl-4-[(3-methyloxetan-3-yl)-sulfamoyl]pyrrole-2-carboxamide]
[1]
  EC50: 30 nM
[2]
  CC50 at 4 days: > 25 µM
[3]
  EC50: 30 nM

## CC(CC(F)(F)F)NS(=O)(=O)c1cc(C(=O)Nc2cc(F)c(F)c(Cl)c2)n(C)c1 (racemic) [Compound 169, N-(3-Chloro-4,5-difluorophenyl)-1-methyl-4-[(3,3,3-trifluoro-1-methylpropyl)sulfamoyl]-1H-pyrrole-2-carboxamide]
[1]
  EC50: 120 nM
[2]
  CC50 at 4 days: 11.2 µM
[3]
  EC50: 70 nM

## Cc1c(S(=O)(=O)NC2(C)COC2)cn(C)c1C(=O)Nc1ccc(F)c(Cl)c1 [Compound 149, N-(3-Chloro-4-fluorophenyl)-1,3-dimethyl-4-[(3-methyloxetan-3-yl)sulfamoyl]-1H-pyrrole-2-carboxamide]
[1]
  EC50: 40 nM
[2]
  CC50 at 4 days: > 25 µM
[3]
  EC50: 30 nM

## C[C@@H](NS(=O)(=O)c1cn(C)c(C(=O)Nc2ccc(F)c(F)c2F)c1F)C(F)(F)F [Compound 183, 3-Fluoro-1-methyl-4-{[(1R)-2,2,2-trifluoro-1-methylethyl]sulfamoyl}-N-(2,3,4-trifluorophenyl)-1H-pyrrole-2-carboxamide]
[1]
  EC50: 20 nM
[2]
  CC50 at 4 days: > 25 µM
[3]
  EC50: 10 nM

## C[C@@H](NS(=O)(=O)c1c(F)c(C(=O)Nc2ccc(F)c(C#N)c2)n(C)c1C#N)C(F)(F)F [Compound 310, 5-cyano-N-(3-cyano-4-fluoro-phenyl)-3-fluoro-1-methyl-4-[[(1R)-2,2,2-trifluoro-1-methyl-ethyl]sulfamoyl]pyrrole-2-carboxamide]
[1]
  EC50: 70 nM
[2]
  CC50 at 4 days: > 25 µM
[3]
  EC50: 160 nM

## C[C@@H](NS(=O)(=O)c1cc(C(=O)Nc2ccc(F)c(Cl)c2F)n(C)c1)C(F)(F)F [Compound 120, N-(3-Chloro-2,4-difluorophenyl)-1-methyl-4-{[(1R)-2,2,2-trifluoro-1-methylethyl]sulfamoyl}-1H-pyrrole-2-carboxamide]
[1]
  EC50: 30 nM
[2]
  CC50 at 4 days: > 25 µM
[3]
  EC50: 30 nM

## COCC(C)(NS(=O)(=O)c1cc(C(=O)Nc2cc(F)c(F)c(Cl)c2)n(C)c1)C(F)(F)F (stereo not drawn) [Compound 73, N-(3-chloro-4,5-difluoro-phenyl)-1-methyl-4-[[2,2,2-trifluoro-1-(methoxymethyl)-1-methyl-ethyl]sulfamoyl]pyrrole-2-carboxamide]
[2]
  CC50 at 4 days: 14.1 µM
[3]
  EC50: 100 nM

## CC[C@H](NS(=O)(=O)c1cn(C)c(C(=O)Nc2ccc(F)c(C#N)c2)c1F)C(F)(F)F [Compound 284, N-(3-cyano-4-fluoro-phenyl)-3-fluoro-1-methyl-4-[[(1S)-1-(trifluoro-methyl)propyl]sulfamoyl]pyrrole-2-carboxamide]
[2]
  CC50 at 4 days: > 25 µM
[3]
  EC50: 9 nM

## C[C@@H](NS(=O)(=O)c1c(F)c(C(=O)Nc2ccc(F)c(C#N)c2)n(C)c1C1CC1)C(F)(F)F [Compound 304, N-(3-cyano-4-fluoro-phenyl)-5-cyclopropyl-3-fluoro-1-methyl-4-[[(1R)-2,2,2-trifluoro-1-methyl-ethyl]-sulfamoyl]-pyrrole-2-carboxamide]
[2]
  CC50 at 4 days: > 25 µM
[3]
  EC50: 10 nM

## C[C@@H](NS(=O)(=O)c1cn(C)c(C(=O)Nc2ccc(F)cc2F)c1F)C(F)(F)F [Compound 312, N-(2,4-difluorophenyl)-3-fluoro-1-methyl-4-[[(1R)-2,2,2-trifluoro-1-methyl-ethyl]sulfamoyl]pyrrole-2-carboxamide]
[2]
  CC50 at 4 days: > 25 µM
[3]
  EC50: 60 nM

## C[C@@H](NS(=O)(=O)c1cn(C)c(C(=O)Nc2ccc(F)c(C#N)c2)c1F)C(C)(F)F [Compound 317, N-(3-cyano-4-fluoro-phenyl)-4-[[(1R)-2,2-difluoro-1-methyl-propyl]sulfamoyl]-3-fluoro-1-methyl-pyrrole-2-carboxamide]
[2]
  CC50 at 4 days: > 25 µM
[3]
  EC50: 6 nM

## C[C@@H](NS(=O)(=O)c1cn(C)c(C(=O)Nc2ccc(F)c(C#N)c2)c1Br)C(F)(F)F [Compound 292, 3-bromo-N-(3-cyano-4-fluoro-phenyl)-1-methyl-4-[[(1R)-2,2,2-trifluoro-1-methyl-ethyl]sulfamoyl]pyrrole-2-carboxamide]
[2]
  CC50 at 4 days: 15.5 µM
[3]
  EC50: 30 nM

## CC[C@@H](NS(=O)(=O)c1cn(C)c(C(=O)Nc2ccc(F)c(C#N)c2)c1Cl)C(F)(F)F [Compound 290, 3-chloro-N-(3-cyano-4-fluoro-phenyl)-1-methyl-4-[[(1R)-1-(trifluoro-methyl)propyl]sulfamoyl]pyrrole-2-carboxamide]
[2]
  CC50 at 4 days: > 25 µM
[3]
  EC50: 20 nM

## C=Cc1c(S(=O)(=O)N[C@H](C)C(F)(F)F)c(F)c(C(=O)Nc2ccc(F)c(C#N)c2)n1C [Compound 311, N-(3-cyano-4-fluoro-phenyl)-3-fluoro-1-methyl-4-[[(1R)-2,2,2-trifluoro-1-methyl-ethyl]sulfamoyl]-5-vinyl-pyrrole-2-carboxamide]
[2]
  CC50 at 4 days: > 25 µM
[3]
  EC50: 60 nM

## Cn1cc(S(=O)(=O)NC2(C)COC2)c(F)c1C(=O)Nc1ccc(F)c(Cl)c1 [Compound 108, N-(3-Chloro-4-fluorophenyl)-3-fluoro-1-methyl-4-[(3-methyloxetan-3-yl)sulfamoyl]-1H-pyrrole-2-carboxamide]
[2]
  CC50 at 4 days: > 25 µM
[3]
  EC50: 10 nM

## C[C@@H](NS(=O)(=O)c1cn(C)c(C(=O)Nc2ccc(F)c(C(F)F)c2)c1F)C(F)(F)F [Compound 286, N-[3-(difluoromethyl)-4-fluoro-phenyl]-3-fluoro-1-methyl-4-[[(1R)-2,2,2-trifluoro-1-methyl-ethyl]sulfamoyl]pyrrole-2-carboxamide]
[2]
  CC50 at 4 days: 21.9 µM
[3]
  EC50: 5 nM

## C[C@@H](NS(=O)(=O)c1c(F)c(C(=O)Nc2ccc(F)c(C#N)c2)n(C)c1Br)C(F)(F)F [Compound 301, 5-bromo-N-(3-cyano-4-fluoro-phenyl)-3-fluoro-1-methyl-4-[[(1R)-2,2,2-trifluoro-1-methyl-ethyl]sulfamoyl]pyrrole-2-carboxamide]
[2]
  CC50 at 4 days: > 25 µM
[3]
  EC50: 7 nM

## CC(C)c1c(S(=O)(=O)N[C@H](C)C(F)(F)F)cn(C)c1C(=O)Nc1ccc(F)c(C#N)c1 [Compound 303, N-(3-cyano-4-fluoro-phenyl)-3-isopropyl-1-methyl-4-[[(1R)-2,2,2-trifluoro-1-methyl-ethyl]sulfamoyl]pyrrole-2-carboxamide]
[2]
  CC50 at 4 days: > 25 µM
[3]
  EC50: > 12500 nM
